Assay results reported in US20220351806A1, “Biomarker Panels for Guiding Dysregulated Host Response Therapy” (Endpoint Health Inc., priority 2019, published 2022).

Tested on: sepsis patients
Assay: VANISH trial survival analysis, hydrocortisone vs placebo, by patient subtype classifier
Type: in vivo, human
Set-up: mortality reduction in the placebo group in comparison to the hydrocortisone group / Mortality rate: concentration or dose not given beside the values
Conditions: for Alive / Dead / Mortality rate / Survival rate / Mortality Reduction Group: VANISH trial; for Alive / Dead / Mortality rate / Survival rate: Hydro group; for 28-day mortality reduction in the placebo group in comparison to the hydrocortisone group: VANISH; for Mortality Reduction Group: arm with lower mortality, Hydro vs Placebo
From the text: The test expression data from each trial were normalized by the platform normalization matrix described above^13 so that the test data were more consistent with the training data. The classifiers (e.g., the Full Model, the SS Model, the S Model, and the P Model) were then applied to the normalized data such that the patients were classified into A, B, and C subtypes. […] Therefore, each sample in the target samples was normalized independently with the normalization matrix of the sample array platform.
Survival and mortality rates were calculated at day 28 because survival and mortality labels at other time points were not available. […] Binomial and Chi-squared with continuity correction tests were used to test for the significance of these differences.
In one example, previously identified subtypes of sepsis patients were used to tune the model to identify these type A and B patients. Two distinct sepsis response signatures (SRS1 and SRS2) were identified in five public studies (E-MTAB-4421, E-MTAB-4451, E-MTAB-5273, E-MTAB-5274, and E-MTAB-7581), where HumanHT-12 v4 BeadChip were used to generate the gene expression profiles of the patient samples. The processed data of those five studies were downloaded and processed using R programming language and software environment for statistical analysis (version 3.6.3). The Bioconductor annotation package, illuminaHumanv4.db (version 1.26.0), was used to annotate microarray probes and expression levels of genes were determined by each individual probe or mean of probes belonging to the same gene. In order to remove cohort biases, the Bioconductor package, limma (version 3.42.2), was used to remove batch effects. Using ss.b2 panel genes, subtype A, B, and C scores were calculated by geometric mean of up/down genes.
To build the classifier, we defined E-MTAB-4421, E-MTAB-4451, E-MTAB-5273, and E-MTAB-5274 as the training dataset and VANISH (E-MTAB-7581) as the testing dataset. We used features (subtype A, B, and C scores) and class labels (SRS1 vs SRS2) in the training dataset to build a machine-learned classifier based on support-vector machine (SVM) method. SVM is a supervised machine learning method for classification analysis. The algorithm finds a single or a set of hyperplanes that maximize the margin among subtype A, B, and C scores. In order to capture non-linear data, the kernel function was used. R package e1071 was used to build the SVM classifier with following parameters: method=“C-classification”, kernal=“radial”, gamma=0.1, and cost=10.
The accuracy of the classifiers was evaluated by Leave-One-Out (LOO) cross-validation over the training dataset. Also the classifier was applied to 117 controlled samples from VANISH trial.
In addition to the SVM-method, thresholds can be employed to scores in order to define A vs. B labels. […] Therefore we applied a heuristic threshold (threshold=0) to subtype A and B scores to classify SRS1-like and SRS2-like in VANISH: SRS2-like label was assigned to samples with subtype A score >0 and subtype B score <0 and SRS1-like label was assigned to the rest of samples.
Besides the heuristic threshold, we also derived the thresholds for subtype A and B scores using the training dataset. Same as the SVM method, we defined E-MTAB-4421, E-MTAB-4451, E-MTAB-5273, and E-MTAB-5274 as the training dataset and VANISH (E-MTAB-7581) as the testing dataset.

[1] = day 28, Full Model, subtypes CA
[2] = day 28, SS.B2 Model (SVM), Total
[3] = day 28, SS.B2 Model (SVM), type A (SRS2-like)
[4] = day 28, SS.B2 Model (SVM), type B (SRS1-like)

**Q.** How did the Alive (day 28, Full Model, subtype C) turn out when `C[C@]12CCC(=O)C=C1CC[C@@H]1[C@@H]2[C@@H](O)C[C@@]2(C)[C@H]1CC[C@]2(O)C(=O)CO` [Hydro, hydrocortisone] was run?
**A.** 11

**Q.** And the Dead (day 28, Full Model, subtype C)?
**A.** 8

**Q.** What about the Mortality rate (day 28, Full Model, subtype C) of the same molecule?
**A.** 42.1%

**Q.** What about the Survival rate (day 28, Full Model, subtype C) of the same molecule?
**A.** 57.9%

**Q.** What about the Alive [1] of the same molecule?
**A.** 20

**Q.** What about the Dead [1] of the same molecule?
**A.** 16

**Q.** What about the Mortality rate [1] of the same molecule?
**A.** 44.4%

**Q.** And the Survival rate [1]?
**A.** 55.6%

**Q.** And the Alive (day 28, P Model, Total)?
**A.** 36

**Q.** What about the Dead (day 28, P Model, Total) of the same molecule?
**A.** 22

**Q.** And the Mortality rate (day 28, P Model, Total)?
**A.** 37.9%

**Q.** And the Survival rate (day 28, P Model, Total)?
**A.** 62.1%

**Q.** What about the Alive (day 28, P Model, subtype A) of the same molecule?
**A.** 9

**Q.** What about the Dead (day 28, P Model, subtype A) of the same molecule?
**A.** 10

**Q.** And the Mortality rate (day 28, P Model, subtype A)?
**A.** 52.6%

**Q.** And the Survival rate (day 28, P Model, subtype A)?
**A.** 47.4%

**Q.** What about the Alive (day 28, P Model, subtype B) of the same molecule?
**A.** 23

**Q.** What about the Dead (day 28, P Model, subtype B) of the same molecule?
**A.** 8

**Q.** And the Mortality rate (day 28, P Model, subtype B)?
**A.** 25.8%

**Q.** And the Survival rate (day 28, P Model, subtype B)?
**A.** 74.2%

**Q.** And the Alive (day 28, P Model, subtype C)?
**A.** 4

**Q.** And the Dead (day 28, P Model, subtype C)?
**A.** 4

**Q.** What about the Mortality rate (day 28, P Model, subtype C) of the same molecule?
**A.** 50.0%

**Q.** What about the Survival rate (day 28, P Model, subtype C) of the same molecule?
**A.** 50.0%

**Q.** And the Alive (day 28, P Model, subtypes CA)?
**A.** 13

**Q.** What about the Dead (day 28, P Model, subtypes CA) of the same molecule?
**A.** 14

**Q.** What about the Mortality rate (day 28, P Model, subtypes CA) of the same molecule?
**A.** 51.9%

**Q.** And the Survival rate (day 28, P Model, subtypes CA)?
**A.** 48.1%

**Q.** What about the Alive (day 28, S Model, Total) of the same molecule?
**A.** 20

**Q.** And the Dead (day 28, S Model, Total)?
**A.** 13

**Q.** What about the Mortality rate (day 28, S Model, Total) of the same molecule?
**A.** 39.4%

**Q.** And the Survival rate (day 28, S Model, Total)?
**A.** 60.6%

**Q.** And the Alive (day 28, S Model, subtype A)?
**A.** 16

**Q.** And the Dead (day 28, S Model, subtype A)?
**A.** 9

**Q.** What about the Mortality rate (day 28, S Model, subtype A) of the same molecule?
**A.** 36.0%

**Q.** What about the Survival rate (day 28, S Model, subtype A) of the same molecule?
**A.** 64.0%

**Q.** And the Alive (day 28, S Model, subtype B)?
**A.** 12

**Q.** What about the Dead (day 28, S Model, subtype B) of the same molecule?
**A.** 9

**Q.** What about the Mortality rate (day 28, S Model, subtype B) of the same molecule?
**A.** 42.9%

**Q.** What about the Survival rate (day 28, S Model, subtype B) of the same molecule?
**A.** 57.1%

**Q.** What about the Alive (day 28, S Model, subtype C) of the same molecule?
**A.** 8

**Q.** And the Dead (day 28, S Model, subtype C)?
**A.** 4

**Q.** And the Survival rate (day 28, S Model, subtype C)?
**A.** 66.7%

**Q.** And the Alive (day 28, S Model, subtypes CA)?
**A.** 8

**Q.** What about the Dead (day 28, S Model, subtypes CA) of the same molecule?
**A.** 4

**Q.** And the Survival rate (day 28, S Model, subtypes CA)?
**A.** 66.7%

**Q.** And the Alive (day 28, SS Model, Total)?
**A.** 36

**Q.** What about the Dead (day 28, SS Model, Total) of the same molecule?
**A.** 22

**Q.** What about the Mortality rate (day 28, SS Model, Total) of the same molecule?
**A.** 37.9%

**Q.** What about the Survival rate (day 28, SS Model, Total) of the same molecule?
**A.** 62.1%

**Q.** And the Alive (day 28, SS Model, subtype A)?
**A.** 15

**Q.** What about the Dead (day 28, SS Model, subtype A) of the same molecule?
**A.** 9

**Q.** What about the Mortality rate (day 28, SS Model, subtype A) of the same molecule?
**A.** 37.5%

**Q.** And the Survival rate (day 28, SS Model, subtype A)?
**A.** 62.5%

**Q.** And the Alive (day 28, SS Model, subtype B)?
**A.** 5

**Q.** What about the Dead (day 28, SS Model, subtype B) of the same molecule?
**A.** 5

**Q.** What about the Mortality rate (day 28, SS Model, subtype B) of the same molecule?
**A.** 50.0%

**Q.** And the Survival rate (day 28, SS Model, subtype B)?
**A.** 50.0%

**Q.** What about the Alive (day 28, SS Model, subtype C) of the same molecule?
**A.** 16

**Q.** And the Dead (day 28, SS Model, subtype C)?
**A.** 8

**Q.** And the Survival rate (day 28, SS Model, subtype C)?
**A.** 66.7%

**Q.** What about the Alive (day 28, SS Model, subtypes CA) of the same molecule?
**A.** 31

**Q.** What about the Dead (day 28, SS Model, subtypes CA) of the same molecule?
**A.** 17

**Q.** What about the Survival rate (day 28, SS Model, subtypes CA) of the same molecule?
**A.** 64.6%

**Q.** What about the Alive [2] of the same molecule?
**A.** 36

**Q.** What about the Dead [2] of the same molecule?
**A.** 22

**Q.** What about the Mortality rate [2] of the same molecule?
**A.** 37.9%

**Q.** What about the Survival rate [2] of the same molecule?
**A.** 62.1%

**Q.** And the Alive [3]?
**A.** 22

**Q.** What about the Dead [3] of the same molecule?
**A.** 14

**Q.** What about the Mortality rate [3] of the same molecule?
**A.** 38.9%

**Q.** And the Survival rate [3]?
**A.** 61.1%

**Q.** What about the Alive [4] of the same molecule?
**A.** 14

**Q.** And the Dead [4]?
**A.** 8

**Q.** What about the Mortality rate [4] of the same molecule?
**A.** 36.4%

**Q.** What about the Survival rate [4] of the same molecule?
**A.** 63.6%

**Q.** And the “28-day mortality reduction in the placebo group in comparison to the hydrocortisone group” value (SRS2-like patients by ROC-derived thresholds (A threshold=-0.2664, B threshold=0.3179))?
**A.** 81.7%

**Q.** And the “28-day mortality reduction in the placebo group in comparison to the hydrocortisone group” value (SRS2-like patients by heuristic threshold=0 (A score >0, B score <0))?
**A.** 85.2%

**Q.** What about the “Mortality Reduction Group” value (day 28, Full Model, Total) of the same molecule?
**A.** Placebo

**Q.** What about the “Mortality Reduction Group” value (day 28, Full Model, subtype A) of the same molecule?
**A.** Placebo

**Q.** What about the “Mortality Reduction Group” value (day 28, Full Model, subtype B) of the same molecule?
**A.** Hydro

**Q.** And the “Mortality Reduction Group” value (day 28, Full Model, subtype C)?
**A.** Placebo

**Q.** What about the “Mortality Reduction Group” value [1] of the same molecule?
**A.** Placebo

**Q.** And the “Mortality Reduction Group” value (day 28, P Model, Total)?
**A.** Placebo

**Q.** What about the “Mortality Reduction Group” value (day 28, P Model, subtype A) of the same molecule?
**A.** Placebo

**Q.** What about the “Mortality Reduction Group” value (day 28, P Model, subtype B) of the same molecule?
**A.** Hydro

**Q.** What about the “Mortality Reduction Group” value (day 28, P Model, subtype C) of the same molecule?
**A.** Placebo

**Q.** What about the “Mortality Reduction Group” value (day 28, P Model, subtypes CA) of the same molecule?
**A.** Placebo

**Q.** What about the “Mortality Reduction Group” value (day 28, SS Model, Total) of the same molecule?
**A.** Placebo

**Q.** What about the “Mortality Reduction Group” value (day 28, SS Model, subtype A) of the same molecule?
**A.** Placebo

**Q.** What about the “Mortality Reduction Group” value (day 28, SS Model, subtype B) of the same molecule?
**A.** Placebo

**Q.** What about the “Mortality Reduction Group” value (day 28, SS Model, subtype C) of the same molecule?
**A.** Placebo

**Q.** What about the “Mortality Reduction Group” value (day 28, SS Model, subtypes CA) of the same molecule?
**A.** Placebo

**Q.** And the “Mortality Reduction Group” value [2]?
**A.** Placebo

**Q.** And the “Mortality Reduction Group” value [3]?
**A.** Placebo

**Q.** And the “Mortality Reduction Group” value [4]?
**A.** Hydro

**Q.** And the “lower mortality in the placebo group when compared to the hydrocortisone therapy group” value (sepsis patients, 28-day, subtype A, Full Model)?
**A.** 64.6%

**Q.** What about the “lower mortality in the placebo group when compared to the hydrocortisone therapy group” value (sepsis patients, 28-day, subtype A, P Model) of the same molecule?
**A.** 77.6%

**Q.** What about the “lower mortality in the placebo group when compared to the hydrocortisone therapy group” value (sepsis patients, 28-day, subtype A, S Model) of the same molecule?
**A.** 86.1%

**Q.** And the “lower mortality in the placebo group when compared to the hydrocortisone therapy group” value (sepsis patients, 28-day, subtype A, SS Model)?
**A.** 86.0%

**Q.** What about the “lower mortality in the hydrocortisone group when compared to the placebo group” value (sepsis patients, 28-day, subtype B, Full Model) of the same molecule?
**A.** 35.2%

**Q.** And the “lower mortality in the placebo group when compared to the hydrocortisone therapy group” value (sepsis patients, 28-day, subtype C, Full Model)?
**A.** 56.8%
